# Source: patent US20220273658A1, “SMALL MOLECULE LIVER X RECEPTOR MODULATORS AND USES THEREOF” (University of Houston System, priority 2019, published 2022)
# Experiments:
# [1] = system: human PDAC cell lines; assay: cell viability response curves with increasing concentrations; format: cell-based
# [2] = system: pancreatic cancer cells; assay: metabolomic analysis using mass spectroscopy in pancreatic cancer cells; format: cell-based, human
# Procedure: To further characterize the mechanisms of action of novel LXR modulators 1E5 and 3A4, metabolomic and transcriptomic analysis of pancreatic cancer cells were conducted in response to treatment. […] PDAC tumors have altered metabolism to support its growth and survival. Previous studies have reported that Kras upregulates the non-canonical use of glutamine to maintain NADPH/NADP+ ratio which in turn regulates redox homeostasis. This unconventional use of glutamine by PDAC cells fuel cancer cell proliferation and survival. Glutamine metabolism in PDAC has two unique functions: 1. Glutamine-derived Glutamate is used for glutathione (GSH) biosynthesis. 2. Glutamine facilitates generation of reducing equivalents in the form of NADPH. In PDAC mitochondria, glutamine is converted to glutamate by glutaminase enzyme (GLS1). This glutamine derived glutamate is conventionally converted to alpha-ketoglutarate by glutamate dehydrogenase (GLUD1) to fuel citric acid cycle. However, in PDAC cells glutamate is converted to aspartate in cytosol which is converted to malic acid and NADPH is produced during this process. This process is essential to maintain redox homeostasis in the tumor. However, this non-canonical use of glutamine is dispensable in non-malignant cells. Therefore, targeting GLS1 to decrease the bioavailability of glutamate to act as source of nitrogen and carbon for the synthesis of amino acids and nucleic acids is a viable strategy to target PDAC tumors. […] The effect of 1E5 is similar to BPTES, a potent GLS1 inhibitor.
# (§1) TCA cycle intermediates act as anaplerotic substrate for gluconeogenesis and lipogenesis. […] GOT2 converts glutamine-derived glutamate to alpha-KG. During this process oxaloacetate is converted to aspartate which is required to maintain redox homeostasis. Studies have shown that inhibition of GOT2 in PDAC promotes senescence.
# To determine if 1E5 and 3A4 can induce apoptosis, PDAC cells were treated with the LXR ligands and subjected to pro-apoptotic caspase cleavage analysis. […] Metabolomic profiling following treatments with the two ligands indicated the activation of two distinct cell death mechanisms. Ferroptosis is a non-apoptotic form of cell death which is characterized by accumulation of lipid peroxides by loss of glutathione peroxidase 4 (GPX4) activity. It can also be induced by accumulation of intracellular iron and depletion of reduced glutathione (GSH). GPX4 is an anti-oxidant enzyme involved in conversion of PUFA peroxides to PUFA alcohols. GSH is a critical cofactor of GPX4 and acts as a reducing agent to reduce the lipid peroxides. Therefore, direct inhibition of GPX4 activity or reduction in GSH levels trigger ferroptosis. The second mechanism of inducing ferroptosis is accumulation of polyunsaturated fatty acids (PUFAs) in cells. Studies have shown that PUFAs are the most susceptible lipids to peroxidation.
# Expression profiles of ferroptosis genes in RNAseq data following 1E5 treatment were also consistent with its pro-ferroptotic actions. […] Polyamines are amino-acid derived polycationic alkylamines that are required for the growth of cells. SAT1 catalyzes the acetylation of spermidine and spermine to form N-acetylspermidine and N-acetylspermine respectively. […] SAT1 induces ferroptosis by upregulating the peroxidation of PUFA arachidonic acid. Ceramides are sphingolipids consisting of sphingosine and fatty acid acyl chain. Cellular stress leads to upregulation of ceramide synthesis which mediate caspase-dependent apoptosis. Accumulation of ceramides/hexosylceramides in the mitochondria leads to the formation of channel like structures in the mitochondrial outer membrane which increases the permeability of pro-apoptotic proteins such as cytochrome c. ER stress is also known to activate de-novo synthesis of ceramides and induce apoptosis by increasing the flow of Ca ions and upregulating the unfolded protein stress response. […]
# [3] = system: PDAC cells; assay: enzymatic assay of glutamate levels; format: cell-based, human
# Procedure: To further characterize the mechanisms of action of novel LXR modulators 1E5 and 3A4, metabolomic and transcriptomic analysis of pancreatic cancer cells were conducted in response to treatment. […] PDAC tumors have altered metabolism to support its growth and survival. Previous studies have reported that Kras upregulates the non-canonical use of glutamine to maintain NADPH/NADP+ ratio which in turn regulates redox homeostasis. This unconventional use of glutamine by PDAC cells fuel cancer cell proliferation and survival. Glutamine metabolism in PDAC has two unique functions: 1. Glutamine-derived Glutamate is used for glutathione (GSH) biosynthesis. 2. Glutamine facilitates generation of reducing equivalents in the form of NADPH. In PDAC mitochondria, glutamine is converted to glutamate by glutaminase enzyme (GLS1). This glutamine derived glutamate is conventionally converted to alpha-ketoglutarate by glutamate dehydrogenase (GLUD1) to fuel citric acid cycle. However, in PDAC cells glutamate is converted to aspartate in cytosol which is converted to malic acid and NADPH is produced during this process. This process is essential to maintain redox homeostasis in the tumor. However, this non-canonical use of glutamine is dispensable in non-malignant cells. […]
# [4] = system: GLS1 and GOT2; assay: qPCR of genes involved in glutamine metabolism; format: cell-based, human; conditions: PDAC cells
# Text: as §1
structure (smiles),measurement,setting,value
"O=c1cc(-c2ccccc2)nc(Nc2cccc(C(F)(F)F)c2)[nH]1 [Compound 1E5, 6-phenyl-2-{[3-(trifluoromethyl)phenyl]amino}-3,4-dihydropyrimidin-4-one]",potency in response curves compared to GW3965,[1],more potent activity as compared to GW3965
same,glutamate levels (mass spectroscopy),[2],decreases in glutamate levels
same,glutamine biosynthesis,[2],inhibited glutamine biosynthesis
same,level of glutathione (GSH),[2],decreased level of GSH
same,"levels of TCA cycle intermediates (alpha-KG, citrate and fumarate)",[2],downregulated
same,levels of asparagine and aspartate,[2],decreased the levels
same,levels of polyamine metabolites,[2]; PANC-1,"depletion of spermidine and spermine and accumulation of putrescine, N-acetylspermidine and N-acetylspermine"
same,levels of polyunsaturated fatty acids (PUFAs),[2]; PANC-1,increased levels of PUFAs
same,"glutamate levels, combination treatment with BPTES",[3]; 1E5 plus glutaminase inhibitor BPTES,synergistic effects on reducing the glutamate levels
same,intracellular levels of glutamate,[3]; treated for 48 hours,significantly reduced
same,expression of GLS1 and GOT2,[4],downregulated the expression
